The text below walks through data of PubChem BioAssay (NCI).

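96-well plates; 48 h exposure; 5 concentrations. Endpoints by linear interpolation between flanking doses. Not reached: highest tested concentration assigned. The concentration for 50% growth inhibition is given as GI50. TGI is the concentration that stops growth completely.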 Some results are limits rather than exact numbers.

What all share (assay): inhibition of tumour cell growth, NCI panel, 48 h
For test [1], the system named is SN12C renal.
Test [2] has as its system HOP-92 NSCLC.
Test [3] has as its system HS 578T breast.
Test [4] has as its system IGROV1 ovarian.
Test [5] relates to PC-3 prostate.
In test [6] the test system is MDA-MB-435.
Test [7] has as its system SK-MEL-5 melanoma.
Test [8] has as its system LOX IMVI melanoma.

As for `C#Cc1ccc(-n2c(/C=C/c3ccc(O)cc3)nc3ncccc3c2=O)cc1`, the GI50 in test [1] is 5.16 µM; in test [2], 1.8 µM; in test [3], 3.24 µM; in test [4], 4.69 µM; in test [5], 3.87 µM; in test [6], 1.6 µM. In addition, the figures for the GI50 in test [7] and in test [8] were 2.24 µM and 5.35 µM, respectively. For the same compound, the TGI is > 100 µM in test [1]; 17.1 µM in test [2]; 30 µM in test [3]; 35.4 µM in test [4]; 47.9 µM in test [5]; 4.04 µM in test [6]. The figures for the TGI in test [7] and in test [8] were 7.45 µM and > 100 µM, respectively.

Regarding `N#CC(C#N)=C/C=C(\Sc1ccc(Cl)cc1)c1ccc(F)cc1`, the GI50 in test [1] was 0.986 µM; in test [2], 0.501 µM; in test [3], 2.75 µM; in test [4] it was 2.09 µM; in test [5] it was 0.496 µM; in test [6] it was 0.81 µM. Moreover, the GI50 is 1.76 µM in test [7] and 0.403 µM in test [8]. In addition, the TGI in test [1] is 7.26 µM; in test [2], 13.2 µM; in test [3] it was 22.8 µM; in test [4], 12.3 µM; in test [5], 6.19 µM; in test [6] it was 2.91 µM. The compound further displayed a TGI in test [7] of 6.33 µM.

For `CCSCC1CC(O)(c2ccccc2)C(c2ccccc2)C(c2ccc(F)cc2)O1` (configuration not stated), the GI50 was 1.89 µM in test [1]; 1.23 µM in test [2]; 1.83 µM in test [3]; 2.68 µM in test [4]; 1.95 µM in test [5]; 1.98 µM in test [6]. Besides, the GI50 in test [7] was 1.47 µM; in test [8], 1.61 µM. Besides, the TGI in test [1] turned out to be 5.25 µM; in test [2], 3.15 µM; in test [3] it was 4.88 µM; in test [4], 7.12 µM; in test [5], 9.06 µM; in test [6] it was 5.24 µM. The TGI in test [7] is 2.82 µM; in test [8] it was 3 µM.

On to `CCO/C=C1\SC(=S)N(c2ccc(OCC)cc2)C1=O`, for which the TGI in test [1], in test [2], in test [3], in test [4], in test [5] and in test [6] was > 100 µM in each case. Besides, the TGI in test [7] and in test [8] was > 100 µM each time.

Regarding `O=C(Nc1ccc(OC(F)(F)Cl)cc1)c1cnc(N2CC[C@@H](O)C2)c(-c2ccn[nH]2)c1`, the GI50 in test [1] is 12.6 µM; in test [2] it was 17.3 µM; in test [3], 17.6 µM; in test [4], 15.2 µM; in test [5], 16.3 µM; in test [6], 7.3 µM. For the same compound, the GI50 in test [7] is 10.7 µM; in test [8] it was 4.84 µM. Moreover, the TGI in test [1] is 28.9 µM; in test [2], 41.3 µM; in test [3], 49.3 µM; in test [4] it was 41.1 µM; in test [5], 48.4 µM; in test [6] it was 21.7 µM. Besides, the results for the TGI in test [7] and in test [8] were 22.7 µM and 18.7 µM, respectively.

As to `Cc1cnc(C(=O)NNc2nc3sc4c(c3c(=O)[nH]2)C(C)CCC4)cn1` (configuration not stated), the GI50 was 1.17 µM in test [1]; 1.84 µM in test [2]; 4 µM in test [3]; 0.759 µM in test [4]; 2.08 µM in test [5]; 3.25 µM in test [6]. The figures for the GI50 in test [7] and in test [8] were 1.04 µM and 0.708 µM, respectively. For the same compound, the TGI amounted to 31.4 µM in test [1]; 62.9 µM in test [2]; 84.4 µM in test [3]; 15.8 µM in test [4]; 66.6 µM in test [5]; 26.6 µM in test [6]. Further, the TGI in test [7] is 3.36 µM; in test [8] it was 6.37 µM.

As to `O=C1c2ccccc2C(=O)c2c(NC3CCCCC3)ccc(Nc3ccc(S(=O)(=O)O)cc3)c21`, the TGI is 60.5 µM in test [1]; > 100 µM in test [2]; > 100 µM in test [3]; > 100 µM in test [4]; 83 µM in test [5]; > 100 µM in test [6]. Further, the TGI in test [7] and in test [8] was > 100 µM in each case.

For the compound `CN(C)c1ccc(-c2cc(-c3ccc(Nc4nc(Nc5ccc(Cl)cc5)nc(Nc5ccc(Cl)cc5)n4)cc3)nc(N)c2C#N)cc1`, the GI50 in test [1] was 13.8 µM; in test [3] it was 3.94 µM; in test [4], 4.53 µM; in test [5] it was 1.53 µM; in test [6], 27.9 µM; in test [7], 4.56 µM. Besides, the GI50 in test [8] was 18.9 µM. Further, the TGI is > 100 µM in test [1]; 2.93 µM in test [2]; 59.3 µM in test [3]; > 100 µM in test [4]; 7.44 µM in test [5]; > 100 µM in test [6]. Further, the TGI in test [7] and in test [8] was > 100 µM in each case.

Regarding `COCCN(Cc1ccc(F)cc1)c1ccc(CO)c(Cl)c1`, the GI50 in test [1] is 24.9 µM; in test [2], 8.16 µM; in test [3] it was 60.9 µM; in test [4] it was 0.559 µM; in test [5], 29.4 µM; in test [6], 55.5 µM. Moreover, the values for the GI50 in test [7] and in test [8] were 12.2 µM and 36.2 µM, respectively. Besides, the TGI in test [1] was > 100 µM; in test [2], 60.1 µM; in test [3], > 100 µM; in test [4], 3.7 µM; in test [5] it was > 100 µM; in test [6], > 100 µM. Also, the TGI in test [7] is 26.2 µM; in test [8], > 100 µM.

On to `COc1ccc(C(O)c2cc3c(N)c(C(=O)Nc4cccc5ccccc45)sc3nc2C)cc1` (configuration not stated), for which the GI50 in test [1] was 0.629 µM; in test [2], 0.911 µM; in test [3], 0.319 µM; in test [4], 0.574 µM; in test [5] it was 0.47 µM; in test [6], 0.127 µM. For the same compound, the results for the GI50 in test [7] and in test [8] were 0.327 µM and 0.444 µM, respectively. For the same compound, the TGI was > 46.8 µM in test [1]; > 27.5 µM in test [2]; > 100 µM in test [3]; > 100 µM in test [4]; > 100 µM in test [5]; 0.415 µM in test [6]. For the same compound, the TGI in test [7] was 1.25 µM; in test [8] it was > 39.9 µM.
